The results in this text go back to ChEMBL document CHEMBL1201862, “PubChem BioAssay data set” (2004).

Among the test systems are A549; ACHN; CCRF-CEM; HOP-62; K562; LOX IMVI; RPMI-8226; SF-268; SF-539; SK-MEL-28; SK-MEL-2; SNB-78; SW-620; UO-31; CAKI-1; DU-145; MCF7; MDA-MB-231; SR; UACC-62.
What all share (experiment): growth of human tumour cells (NCI), 48 h

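Tested at 5 concentrations; 48 h exposure; 96-well plates; endpoints linearly interpolated, else capped at highest concentration. GI50 marks 50% less growth.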 Active and inactive are the calls of the source. No stated cut-off is given here; in the data, active = GI50 up to about 1.1 µM and inactive = higher. Where only a bound is given, the exact number is not on record here.

For `Cc1ccc2c(c1)-c1c3c(nn1C)-c1ccccc1SC3O2` (stereo not given), the GI50 with A549 was 50 µM (inactive); with ACHN it was 54.1 µM (inactive); in the test on CCRF-CEM, 41 µM (inactive); in the test on HOP-62, > 100 µM (inactive); in the test on K562, 35.1 µM (inactive); in the test on LOX IMVI it was > 100 µM (inactive). Also, the GI50 in the test on RPMI-8226 was 21.8 µM (inactive); in the test on SF-268, 55.6 µM (inactive); in the test with SF-539, > 100 µM (inactive); in the test with SK-MEL-28, 78.9 µM (inactive); with SK-MEL-2, 64.9 µM (inactive); in the test on SNB-78, > 100 µM (inactive). Further, the GI50 is > 100 µM (inactive) in the test on SW-620 and 20.8 µM (inactive) with UO-31.
As to `[O-][S+](Cc1ccccc1)c1nc2ccccc2nc1-c1cccs1` (stereo not given), the GI50 in the test on A549 is 15.2 µM (inactive); in the test on ACHN it was 13.9 µM (inactive); in the test with CCRF-CEM, 4 µM (inactive); in the test with HOP-62 it was 19.2 µM (inactive); with K562, 5.38 µM (inactive); in the test with RPMI-8226, 17.9 µM (inactive). Further, the GI50 with SF-268 was 17.8 µM (inactive); in the test on SF-539, 16.4 µM (inactive); in the test on SK-MEL-28 it was 11.3 µM (inactive); with SK-MEL-2, 9.66 µM (inactive); with SNB-78, 22 µM (inactive); with UO-31, 24.8 µM (inactive).
As for `O=C(CNc1ccccn1)Nn1cnc2ccc(S(=O)(=O)Nc3ccccn3)cc2c1=O`, the GI50 with A549, in the test on ACHN, with CAKI-1, with CCRF-CEM, with DU-145 and with HOP-62 was > 100 µM (inactive) in each case. For the same compound, the GI50 in the test on K562, in the test with LOX IMVI, in the test with MCF7, with MDA-MB-231, with RPMI-8226 and with SF-268 was > 100 µM (inactive) in each case. Moreover, the GI50 with SF-539, in the test on SK-MEL-28, in the test with SK-MEL-2, in the test on SR, in the test with SW-620 and in the test with UACC-62 was > 100 µM (inactive) throughout. The GI50 in the test with UO-31 is > 100 µM (inactive).
`C=CCNC(=S)NC=C(C(N)=O)C(N)=O`: the GI50 in the test with A549, in the test with ACHN, in the test on CAKI-1, in the test on CCRF-CEM, in the test with DU-145 and with HOP-62 was > 100 µM (inactive) throughout. For the same compound, the GI50 with K562, in the test on LOX IMVI, in the test with MCF7, in the test with MDA-MB-231, in the test on RPMI-8226 and in the test with SF-268 was > 100 µM (inactive) throughout. In addition, the GI50 with SF-539, in the test on SK-MEL-28, in the test on SK-MEL-2, in the test on SR, with SW-620 and with UACC-62 was > 100 µM (inactive) in each case. Besides, the GI50 in the test on UO-31 is 87.9 µM (inactive).
`NC(=O)C(C(N)=O)=C(O)/C(O)=C/C(=O)c1ccccc1`: the GI50 is > 100 µM (inactive) in the test with A549; > 100 µM (inactive) in the test with ACHN; > 100 µM (inactive) in the test on CAKI-1; 21.5 µM (inactive) in the test with CCRF-CEM; > 100 µM (inactive) in the test on DU-145; > 100 µM (inactive) in the test with HOP-62. Further, the GI50 was 0.0652 µM (active) in the test with K562; 89.9 µM (inactive) with LOX IMVI; 0.849 µM (active) in the test on MCF7; > 100 µM (inactive) in the test with MDA-MB-231; 12.6 µM (inactive) with RPMI-8226; > 100 µM (inactive) in the test with SF-268. In addition, the GI50 in the test on SF-539 is > 100 µM (inactive); in the test with SK-MEL-28, > 100 µM (inactive); in the test on SK-MEL-2 it was > 100 µM (inactive); with SR, 1.99 µM (inactive); in the test on SW-620 it was 81.1 µM (inactive); in the test on UACC-62, > 100 µM (inactive). Also, in the test on UO-31, the GI50 was > 100 µM (inactive).
`N#Cc1c(N)nc(SCc2ccccc2)c(C#N)c1-c1ccc(O)cc1`: the GI50 is 11.7 µM (inactive) in the test with A549; 13.2 µM (inactive) in the test with ACHN; 13.5 µM (inactive) in the test on CAKI-1; 13.4 µM (inactive) with CCRF-CEM; 13.5 µM (inactive) in the test on DU-145; 15.2 µM (inactive) in the test with HOP-62. For the same compound, the GI50 is 11 µM (inactive) in the test on K562; 16.6 µM (inactive) in the test on LOX IMVI; 13.9 µM (inactive) in the test on MCF7; 12.3 µM (inactive) in the test with MDA-MB-231; 5.24 µM (inactive) in the test with RPMI-8226; 18.9 µM (inactive) in the test on SF-268. Also, the GI50 in the test on SF-539 was 19.5 µM (inactive); in the test on SK-MEL-28, 13.4 µM (inactive); with SK-MEL-2, 15.2 µM (inactive); in the test with SR it was 10.9 µM (inactive); in the test with SW-620, 15.2 µM (inactive); in the test with UACC-62 it was 15.7 µM (inactive). For the same compound, the GI50 with UO-31 was 1.81 µM (inactive).
Take `CCCCCCCCCCCC(=O)N(CCCCCCCCCCC(=O)O)CC(O)C(O)C(OC1OC(CO)C(O)C(O)C1O)C(O)CO` (stereo not given): the GI50 with A549, in the test on ACHN, in the test with CAKI-1, with CCRF-CEM, in the test on DU-145 and with HOP-62 was > 100 µM (inactive) in each case. In addition, the GI50 in the test on K562 is 95.1 µM (inactive); in the test with LOX IMVI, > 100 µM (inactive); in the test with MCF7, > 100 µM (inactive); with MDA-MB-231 it was > 100 µM (inactive); in the test on RPMI-8226, 50.7 µM (inactive); with SF-268 it was > 100 µM (inactive). Further, the GI50 in the test with SF-539, in the test on SK-MEL-28, with SK-MEL-2, in the test with SR, in the test on SW-620 and in the test with UACC-62 was > 100 µM (inactive) each time. The GI50 in the test on UO-31 was > 100 µM (inactive).
On to `CCCCCCC(O)C(O)CCC(O)C1CCC(CCCCC(O)CC2=CC(C)OC2=O)O1` (stereo not given) [ACETOGENINS], for which the GI50 with A549 was 1.79 µM (inactive); in the test with ACHN, 1.19 µM (inactive); in the test with CAKI-1, 2.2 µM (inactive); in the test with CCRF-CEM, 3.58 µM (inactive); in the test with DU-145, 6.19 µM (inactive); in the test on HOP-62 it was 3.81 µM (inactive). Moreover, the GI50 is 1.82 µM (inactive) in the test on K562; 1.39 µM (inactive) in the test on LOX IMVI; 1.26 µM (inactive) in the test with MCF7; 1.2 µM (inactive) with MDA-MB-231; 7.41 µM (inactive) in the test with RPMI-8226; 2.06 µM (inactive) with SF-268. The GI50 with SF-539 was 4.29 µM (inactive); in the test on SK-MEL-28 it was 4.66 µM (inactive); with SK-MEL-2, 2.99 µM (inactive); with SR, 1.69 µM (inactive); in the test on SW-620, 4.04 µM (inactive); in the test on UACC-62 it was 2.06 µM (inactive). Besides, the GI50 with UO-31 was 2.06 µM (inactive).
